According to patent US8426359B2, “Inhibitors of serine proteases, particularly HCV NS3-NS4A protease” (Vertex Pharmaceuticals Incorporated, priority 2003, dated 2013):
Read-outs that look alike come from different tables or passages of the source.

Key:
HCV NS3-NS4A protease = molecular target: T1, HCV NS3-NS4A protease (Hepatitis C virus genotype 1a, UniProt P27958); assay: HCV enzyme assay (HPLC microbore separation of 5AB substrate and products); assay type: biochemical
T1 construct: The buffer, KK4A, DTT, and tNS3 were combined
T1 sequence (P27958 1027-1208): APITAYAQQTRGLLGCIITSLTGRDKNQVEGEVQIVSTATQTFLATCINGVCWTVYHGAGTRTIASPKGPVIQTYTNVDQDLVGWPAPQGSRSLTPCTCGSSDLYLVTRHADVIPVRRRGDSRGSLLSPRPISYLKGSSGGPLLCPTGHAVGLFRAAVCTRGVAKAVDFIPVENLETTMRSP
Experimental: HCV Enzyme Assay Protocol
HPLC Microbore Method for Separation of 5AB Substrate and Products
• NH2-Glu-Asp-Val-Val-(alpha)Abu-Cys-Ser-Met-Ser-Tyr-COOH
A stock solution of 20 mM 5AB (or concentration of your choice) was made in DMSO w/0.2M DTT. This was stored in aliquots at −20 C.
Buffer: 50 mM HEPES, pH 7.8; 20% glycerol; 100 mM NaCl
Total assay volume was 100 μL
The buffer, KK4A, DTT, and tNS3 were combined; distributed 78 μL each into wells of 96 well plate. This was incubated at 30 C for ˜5-10 min.
2.5 μL of appropriate concentration of test compound was dissolved in DMSO (DMSO only for control) and added to each well. This was incubated at room temperature for 15 min.
Incubated for 20 min at 30 C.
Terminated reaction by addition of 25 μL of 10% TFA
Transferred 120 μL aliquots to HPLC vials
Separated SMSY product from substrate and KK4A by the following method:
Microbore Separation Method:
Instrumentation: Agilent 1100
• Degasser G1322A • Binary pump G1312A • Autosampler G1313A • Column thermostated chamber G1316A • Diode array detector G1315A Column: • Phenomenex Jupiter; 5 micron C18; 300 angstroms; 150×2 mm; P/O 00F-4053-B0 • Column thermostat: 40 C • Injection volume: 100 μL • Solvent A=HPLC grade water+0.1% TFA • Solvent B=HPLC grade acetonitrile+0.1% TFA
• Stop time: 17 min • Post-run time: 10 min.

[1] = tested on: Cells containing hepatitis C virus (HCV) replicon; assay: HCV replicon cell assay; assay type: cell-based
Experimental: HCV Replicon Cell Assay Protocol:
Cells containing hepatitis C virus (HCV) replicon were maintained in DMEM containing 10% fetal bovine serum (FBS), 0.25 mg per ml of G418, with appropriate supplements (media A).
On day 1, replicon cell monolayer was treated with a trypsin: EDTA mixture, removed, and then media A was diluted into a final concentration of 100,000 cells per ml wit. 10,000 cells in 100 ul were plated into each well of a 96-well tissue culture plate, and cultured overnight in a tissue culture incubator at 37° C.
On day 2, compounds (in 100% DMSO) were serially diluted into DMEM containing 2% FBS, 0.5% DMSO, with appropriate supplements (media B). The final concentration of DMSO was maintained at 0.5% throughout the dilution series.
Media on the replicon cell monolayer was removed, and then media B containing various concentrations of compounds was added. Media B without any compound was added to other wells as no compound controls.
Cells were incubated with compound or 0.5% DMSO in media B for 48 hours in a tissue culture incubator at 37° C. At the end of the 48-hour incubation, the media was removed, and the replicon cell monolayer was washed once with PBS and stored at −80° C. prior to RNA extraction.
Culture plates with treated replicon cell monolayers were thawed, and a fixed amount of another RNA virus, such as Bovine Viral Diarrhea Virus (BVDV) was added to cells in each well. RNA extraction reagents (such as reagents from RNeasy kits) were added to the cells immediately to avoid degradation of RNA. Total RNA was extracted according the instruction of manufacturer with modification to improve extraction efficiency and consistency. Finally, total cellular RNA, including HCV replicon RNA, was eluted and stored at −80° C. until further processing.
A Taqman real-time RT-PCR quantification assay was set up with two sets of specific primers and probe. One was for HCV and the other was for BVDV. Total RNA extractants from treated HCV replicon cells was added to the PCR reactions for quantification of both HCV and BVDV RNA in the same PCR well. Experimental failure was flagged and rejected based on the level of BVDV RNA in each well. The level of HCV RNA in each well was calculated according to a standard curve run in the same PCR plate. The percentage of inhibition or decrease of HCV RNA level due to compound treatment was calculated using the DMSO or no compound control as 0% of inhibition. The IC50 (concentration at which 50% inhibition of HCV RNA level is observed) was calculated from the titration curve of any given compound.

[2] = 50% inhibition of HCV RNA level, 48-hour incubation, Taqman real-time RT-PCR, read-out: IC50

| SMILES | Ki (HCV NS3-NS4A protease) [nM] | IC50 [1, 2] [nM] | Ki (HCV NS3-NS4A protease; 25 nM tNS3, 25 μM KK4A, 25 μM 5AB substrate, 20 min at 30 C, read-out: Ki) [nM] | IC50 ([1]; 48 h) [nM] |
| --- | --- | --- | --- | --- |
| CCC[C@H](NC(=O)[C@@H]1C[C@@H]2CCCC[C@@H]2N1C(=O)[C@@H](NC(=O)[C@@H](NC(=O)C(=O)NCc1ccccc1)C1CCCCC1)C(C)(C)C)C(=O)C(=O)NC1CC1 [Compound 2] | 100 to 250 | 250 to 1000 |  |  |
| CCC[C@H](NC(=O)[C@@H]1C[C@@H]2CCCC[C@@H]2N1C(=O)[C@@H](NC(=O)[C@@H](NC(=O)C(=O)NCC(C)C)C1CCCCC1)C(C)(C)C)C(=O)C(=O)NC1CC1 [Compound 6] | 100 to 250 | 250 to 1000 |  |  |
| CCC[C@H](NC(=O)[C@@H]1C[C@@H](Oc2ccc(Cl)cn2)CN1C(=O)[C@@H](NC(=O)[C@@H](NC(=O)C(=O)NCc1ccccc1)C1CCCCC1)C(C)(C)C)C(=O)C(=O)NC1CC1 [Compound 11] | 100 to 250 | < 100 |  |  |
| CCC[C@H](NC(=O)C1C[C@@H](Oc2ccc(Cl)cn2)CN1C(=O)[C@@H](NC(=O)[C@@H](NC(=O)C(=O)NC1CC1)C1CCCCC1)C(C)(C)C)C(=O)C(=O)NC1CC1 (stereo partly drawn) [Compound 10] | 100 to 250 | < 100 |  |  |
| CCC[C@H](NC(=O)[C@@H]1CC2CCCCC2N1C(=O)[C@@H](NC(=O)[C@@H](NC(=O)C(=O)Nc1ccccc1)C1CCCCC1)C(C)(C)C)C(=O)C(=O)NC1CC1 (stereo partly drawn) [Compound 1] |  |  | 100 to 250 | 250 to 1000 |
| CCC[C@H](NC(=O)[C@@H]1C[C@@H]2CCCC[C@@H]2N1C(=O)[C@@H](NC(=O)[C@@H](NC(=O)C(=O)NC1CCCC1)C1CCCCC1)C(C)(C)C)C(=O)C(=O)NC1CC1 [Compound 9] | 250 to 1000 | 250 to 1000 |  |  |
| CCC[C@H](NC(=O)[C@@H]1C[C@@H]2CCCC[C@@H]2N1C(=O)[C@@H](NC(=O)[C@@H](NC(=O)C(=O)Nc1cc(C)on1)C1CCCCC1)C(C)(C)C)C(=O)C(=O)NC1CC1 [Compound 7] | 100 to 250 | 250 to 1000 |  |  |
| CCC[C@H](NC(=O)[C@@H]1C[C@@H]2CCCC[C@@H]2N1C(=O)[C@@H](NC(=O)[C@@H](NC(=O)C(=O)NC1CC1)C1CCCCC1)C(C)(C)C)C(=O)C(=O)NC1CC1 [Compound 4] | 100 to 250 | 250 to 1000 |  |  |
| CCC[C@H](NC(=O)[C@@H]1C[C@@H](Oc2ccc(Cl)cn2)CN1C(=O)[C@@H](NC(=O)[C@@H](NC(=O)C(=O)NCC(C)C)C1CCCCC1)C(C)(C)C)C(=O)C(=O)NC1CC1 [Compound 12] | 100 to 250 | < 100 |  |  |
| CCC[C@H](NC(=O)[C@@H]1C[C@@H]2CCCC[C@@H]2N1C(=O)[C@@H](NC(=O)[C@@H](NC(=O)C(=O)NC(C)C)C1CCCCC1)C(C)(C)C)C(=O)C(=O)NC1CC1 [Compound 5] | 100 to 250 | 250 to 1000 |  |  |
| CCC[C@H](NC(=O)[C@@H]1C[C@@H]2CCCC[C@@H]2N1C(=O)[C@@H](NC(=O)[C@@H](NC(=O)C(=O)NCC1CCCCC1)C1CCCCC1)C(C)(C)C)C(=O)C(=O)NC1CC1 [Compound 3] | 100 to 250 | 250 to 1000 |  |  |
| CCC[C@H](NC(=O)[C@@H]1C[C@@H]2CCCC[C@@H]2N1C(=O)[C@@H](NC(=O)[C@@H](NC(=O)C(=O)NC1CCCCC1)C1CCCCC1)C(C)(C)C)C(=O)C(=O)NC1CC1 [Compound 8] | 100 to 250 | 250 to 1000 |  |  |
